Source: PubChem BioAssay (NCI)
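Each compound was tested at five concentrations against cells in 96-well plates for 48 hours. Abbreviation: GI50, concentration required for 50% inhibition of growth. TGI is the concentration that stops growth completely.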

Experiments:
Experiment in all cases: inhibition of tumour cell growth, NCI panel, 48 h
[1] = system: 786-0 renal
[2] = system: A498 renal
[3] = system: A549 NSCLC
[4] = system: ACHN renal
[5] = system: BT-549 breast
[6] = system: COLO 205 colon
[7] = system: DU-145 prostate
[8] = system: EKVX NSCLC
[9] = system: HCC-2998 colon
[10] = system: HCT-15 colon
[11] = system: HOP-92 NSCLC
[12] = system: HS 578T breast
[13] = system: HT29 colon
[14] = system: IGROV1 ovarian
[15] = system: KM12 colon
[16] = system: LOX IMVI melanoma
[17] = system: M14 melanoma
[18] = system: MALME-3M melanoma
[19] = system: MCF7 breast
[20] = system: MDA-MB-231 breast
[21] = system: MDA-MB-435
[22] = system: NCI-H226 lung
[23] = system: NCI-H23 lung
[24] = system: NCI-H460 lung
[25] = system: NCI-H522 lung
[26] = system: OVCAR-3 ovarian
[27] = system: OVCAR-4 ovarian
[28] = system: OVCAR-5 ovarian
[29] = system: PC-3 prostate
[30] = system: RXF 393 renal
[31] = system: SF-268 CNS
[32] = system: SF-295 CNS
[33] = system: SF-539 CNS
[34] = system: SK-MEL-2 melanoma
[35] = system: SK-MEL-28 melanoma
[36] = system: SK-MEL-5 melanoma
[37] = system: SK-OV-3 ovarian
[38] = system: SN12C renal
[39] = system: SNB-19 CNS
[40] = system: SW-620 colon
[41] = system: T-47D breast
[42] = system: TK-10 renal
[43] = system: U251 CNS
[44] = system: UACC-257 melanoma
[45] = system: UACC-62 melanoma
[46] = system: UO-31 renal

With `Cn1cc(-c2csc(-c3cn(CCCN4CCCCC4)c4ccccc34)n2)c2cccnc21` the GI50 [1] was 1.53 µM, the TGI [1] was 2.93 µM and the GI50 [2] was 13.7 µM. The TGI [2] was 28.7 µM, the GI50 [3] was 1.97 µM and the TGI [3] was 3.6 µM. It also gave a GI50 [4] of 1.63 µM, a TGI [4] of 3.01 µM and a GI50 [5] of 1.56 µM. It also gave a TGI [5] of 2.94 µM, a GI50 [6] of 1.82 µM and a TGI [6] of 3.61 µM. The GI50 [7] was 1.75 µM, the TGI [7] was 3.17 µM and the GI50 [8] was 16.3 µM. It also gave a TGI [8] of 34.5 µM, a GI50 [9] of 1.68 µM and a TGI [9] of 3.23 µM. For the same compound, the GI50 [10] was 1.7 µM, the TGI [10] was 3.2 µM and the GI50 [11] was 13.3 µM. For the same compound, the TGI [11] was 35.2 µM, the GI50 [12] was 2.55 µM and the TGI [12] was 6.26 µM. For the same compound, the GI50 [13] was 1.89 µM, the TGI [13] was 3.62 µM and the GI50 [14] was 1.61 µM. It also gave a TGI [14] of 3.35 µM, a GI50 [15] of 1.72 µM and a TGI [15] of 3.25 µM. For the same compound, the GI50 [16] was 1.66 µM, the TGI [16] was 3.11 µM and the GI50 [17] was 1.82 µM. It also gave a TGI [17] of 3.38 µM, a GI50 [18] of 1.61 µM and a TGI [18] of 3.19 µM. It also gave a GI50 [19] of 1.65 µM, a TGI [19] of 3.29 µM and a GI50 [20] of 1.77 µM. The TGI [20] was 3.32 µM, the GI50 [21] was 1.87 µM and the TGI [21] was 3.47 µM. For the same compound, the GI50 [22] was 2.55 µM, the TGI [22] was 7.62 µM and the GI50 [23] was 1.82 µM. The TGI [23] was 3.62 µM, the GI50 [24] was 2.04 µM and the TGI [24] was 4 µM. It also gave a GI50 [25] of 17.8 µM, a TGI [25] of 41 µM and a GI50 [26] of 1.7 µM. The TGI [26] was 3.14 µM, the GI50 [27] was 2.02 µM and the TGI [27] was 4.07 µM. It also gave a GI50 [28] of 1.63 µM, a TGI [28] of 3.13 µM and a GI50 [29] of 1.74 µM. It also gave a TGI [29] of 3.3 µM, a GI50 [30] of 1.59 µM and a TGI [30] of 3.14 µM. For the same compound, the GI50 [31] was 1.72 µM, the TGI [31] was 3.41 µM and the GI50 [32] was 1.71 µM. The TGI [32] was 3.18 µM, the GI50 [33] was 1.62 µM and the TGI [33] was 3.08 µM. For the same compound, the GI50 [34] was 18.8 µM, the TGI [34] was 38.5 µM and the GI50 [35] was 1.7 µM. The TGI [35] was 3.19 µM, the GI50 [36] was 1.82 µM and the TGI [36] was 3.26 µM. For the same compound, the GI50 [37] was 19.3 µM, the TGI [37] was 42.7 µM and the GI50 [38] was 1.79 µM. For the same compound, the TGI [38] was 3.31 µM, the GI50 [39] was 1.83 µM and the TGI [39] was 3.34 µM. The GI50 [40] was 1.95 µM, the TGI [40] was 3.74 µM and the GI50 [41] was 17.4 µM. The TGI [41] was 51.3 µM, the GI50 [42] was 1.6 µM and the TGI [42] was 2.96 µM. For the same compound, the GI50 [43] was 1.87 µM, the TGI [43] was 3.38 µM and the GI50 [44] was 1.96 µM. It also gave a TGI [44] of 3.65 µM, a GI50 [45] of 1.87 µM and a TGI [45] of 3.46 µM. For the same compound, the GI50 [46] was 1.51 µM and the TGI [46] was 2.93 µM.
